Key:
Test in all cases: KINOMEscan competition binding
Details in all cases: compound 10.0 µM; call rule not given here
CAMK1G (human) = CAMK1G (human) (UniProt Q96NX5)
CAMK2D (human) = CAMK2D (human) (UniProt Q13557)
CAMKK2 (human) = CAMKK2 (human) (UniProt Q96RR4)
CLK1 (human) = CLK1 (human) (UniProt P49759)
CLK3 (human) = CLK3 (human) (UniProt P49761)
CSK (human) = CSK (human) (UniProt P41240)
EPHA4 (human) = EPHA4 (human) (UniProt P54764)
EPHB2 (human) = EPHB2 (human) (UniProt P29323)
EPHB3 (human) = EPHB3 (human) (UniProt P54753)
ERBB4 (human) = ERBB4 (human) (UniProt Q15303)
FGFR1 (human) = FGFR1 (human) (UniProt P11362)
IGF1R (human) = IGF1R (human) (UniProt P08069)
INSR (human) = INSR (human) (UniProt P06213)
INSRR (human) = INSRR (human) (UniProt P14616)
INSRR (human), sequence (P14616 whole entry, looked up): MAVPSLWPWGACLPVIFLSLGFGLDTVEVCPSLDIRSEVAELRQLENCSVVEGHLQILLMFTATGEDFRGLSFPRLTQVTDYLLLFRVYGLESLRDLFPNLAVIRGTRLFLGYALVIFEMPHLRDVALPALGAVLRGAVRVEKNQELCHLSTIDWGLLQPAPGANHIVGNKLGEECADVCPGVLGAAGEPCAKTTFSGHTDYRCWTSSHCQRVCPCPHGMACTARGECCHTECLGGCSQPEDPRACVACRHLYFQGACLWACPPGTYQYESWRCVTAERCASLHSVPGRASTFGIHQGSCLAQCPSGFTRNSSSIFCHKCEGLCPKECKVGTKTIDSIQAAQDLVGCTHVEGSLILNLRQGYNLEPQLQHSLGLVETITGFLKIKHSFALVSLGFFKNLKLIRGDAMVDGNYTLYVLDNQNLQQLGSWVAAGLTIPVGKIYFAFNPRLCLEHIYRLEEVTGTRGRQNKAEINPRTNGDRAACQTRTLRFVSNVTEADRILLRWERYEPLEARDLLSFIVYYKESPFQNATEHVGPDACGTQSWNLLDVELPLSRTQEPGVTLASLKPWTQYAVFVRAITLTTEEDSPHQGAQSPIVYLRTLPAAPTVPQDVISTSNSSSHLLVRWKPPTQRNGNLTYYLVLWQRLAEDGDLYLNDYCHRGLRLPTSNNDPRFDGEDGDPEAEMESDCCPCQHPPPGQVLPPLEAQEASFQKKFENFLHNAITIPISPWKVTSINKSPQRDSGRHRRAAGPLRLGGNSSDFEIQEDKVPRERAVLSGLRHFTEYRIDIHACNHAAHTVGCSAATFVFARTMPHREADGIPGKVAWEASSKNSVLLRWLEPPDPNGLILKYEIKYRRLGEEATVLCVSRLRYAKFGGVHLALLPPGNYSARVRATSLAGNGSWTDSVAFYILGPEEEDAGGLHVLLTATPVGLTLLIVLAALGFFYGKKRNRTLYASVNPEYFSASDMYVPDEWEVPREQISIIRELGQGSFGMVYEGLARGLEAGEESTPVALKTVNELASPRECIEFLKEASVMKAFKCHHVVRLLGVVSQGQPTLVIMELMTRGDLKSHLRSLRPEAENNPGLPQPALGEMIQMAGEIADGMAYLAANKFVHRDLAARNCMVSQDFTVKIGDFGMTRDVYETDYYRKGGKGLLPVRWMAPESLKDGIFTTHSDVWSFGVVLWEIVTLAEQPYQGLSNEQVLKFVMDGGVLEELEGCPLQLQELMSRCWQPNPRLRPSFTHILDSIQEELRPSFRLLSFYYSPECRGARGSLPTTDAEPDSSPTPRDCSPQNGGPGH

LIMK1 (human) = LIMK1 (human) (UniProt P53667)
LTK (human) = LTK (human) (UniProt P29376)
LTK (human), sequence (P29376 whole entry, looked up): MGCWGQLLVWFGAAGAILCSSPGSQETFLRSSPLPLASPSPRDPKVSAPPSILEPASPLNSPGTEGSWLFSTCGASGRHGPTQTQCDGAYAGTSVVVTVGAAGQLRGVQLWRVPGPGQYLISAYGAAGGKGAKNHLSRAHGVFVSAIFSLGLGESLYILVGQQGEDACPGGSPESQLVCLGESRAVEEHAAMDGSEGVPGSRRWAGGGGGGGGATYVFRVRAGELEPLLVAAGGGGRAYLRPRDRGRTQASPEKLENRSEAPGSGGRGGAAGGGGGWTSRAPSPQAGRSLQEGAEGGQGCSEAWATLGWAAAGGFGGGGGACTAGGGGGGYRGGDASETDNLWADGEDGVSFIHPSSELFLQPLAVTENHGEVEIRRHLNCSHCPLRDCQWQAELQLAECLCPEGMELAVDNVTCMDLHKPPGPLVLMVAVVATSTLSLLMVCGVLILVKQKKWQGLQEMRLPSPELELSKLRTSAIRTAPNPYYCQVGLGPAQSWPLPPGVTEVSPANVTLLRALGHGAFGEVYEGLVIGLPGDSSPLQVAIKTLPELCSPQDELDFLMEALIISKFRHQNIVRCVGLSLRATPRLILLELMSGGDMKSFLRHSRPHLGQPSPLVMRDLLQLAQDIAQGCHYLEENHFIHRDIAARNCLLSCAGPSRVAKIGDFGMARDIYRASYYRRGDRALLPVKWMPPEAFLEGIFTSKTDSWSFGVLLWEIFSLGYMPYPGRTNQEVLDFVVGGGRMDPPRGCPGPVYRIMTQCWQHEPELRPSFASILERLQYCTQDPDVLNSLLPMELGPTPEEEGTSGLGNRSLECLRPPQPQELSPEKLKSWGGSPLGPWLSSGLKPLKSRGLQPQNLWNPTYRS

MAP3K5 (human) = MAP3K5 (human) (UniProt Q99683)
MAPK1 (human) = MAPK1 (human) (UniProt P28482)
MAPK14 (human) = MAPK14 (human) (UniProt Q16539)
MAPK14 (human), sequence (Q16539 whole entry, looked up): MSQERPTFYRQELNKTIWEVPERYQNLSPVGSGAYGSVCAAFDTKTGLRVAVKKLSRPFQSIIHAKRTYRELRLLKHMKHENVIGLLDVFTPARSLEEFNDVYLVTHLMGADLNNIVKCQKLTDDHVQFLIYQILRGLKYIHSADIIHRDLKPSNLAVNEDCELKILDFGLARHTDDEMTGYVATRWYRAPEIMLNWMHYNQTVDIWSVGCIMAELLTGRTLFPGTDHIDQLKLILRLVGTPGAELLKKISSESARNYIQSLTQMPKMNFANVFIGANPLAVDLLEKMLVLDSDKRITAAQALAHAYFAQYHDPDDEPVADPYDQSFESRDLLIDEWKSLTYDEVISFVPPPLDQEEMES

MAPK3 (human) = MAPK3 (human) (UniProt P27361)
MARK1 (human) = MARK1 (human) (UniProt Q9P0L2)
MUSK (human) = MUSK (human) (UniProt O15146)
NEK2 (human) = NEK2 (human) (UniProt P51955)
NEK6 (human) = NEK6 (human) (UniProt Q9HC98)
NTRK1 (human) = NTRK1 (human) (UniProt P04629)
PAK3 (human) = PAK3 (human) (UniProt O75914)
PAK3 (human), sequence (O75914 whole entry, looked up): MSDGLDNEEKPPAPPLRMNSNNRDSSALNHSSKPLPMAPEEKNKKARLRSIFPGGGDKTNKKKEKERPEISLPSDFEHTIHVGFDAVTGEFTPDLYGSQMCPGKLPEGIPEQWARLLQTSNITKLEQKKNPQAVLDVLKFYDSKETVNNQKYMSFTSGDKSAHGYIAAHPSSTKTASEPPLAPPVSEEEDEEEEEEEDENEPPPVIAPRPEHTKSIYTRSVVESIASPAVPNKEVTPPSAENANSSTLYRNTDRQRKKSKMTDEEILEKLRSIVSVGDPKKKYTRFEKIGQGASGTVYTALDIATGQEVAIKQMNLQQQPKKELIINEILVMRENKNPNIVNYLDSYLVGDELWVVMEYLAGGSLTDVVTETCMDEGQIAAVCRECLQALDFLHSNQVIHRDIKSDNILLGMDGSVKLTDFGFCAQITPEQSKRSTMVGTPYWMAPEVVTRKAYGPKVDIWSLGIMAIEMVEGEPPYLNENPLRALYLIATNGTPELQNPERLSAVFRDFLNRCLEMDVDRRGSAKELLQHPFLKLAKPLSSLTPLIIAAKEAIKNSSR

PAK6 (human) = PAK6 (human) (UniProt Q9NQU5)
PAK7 (human) = PAK7 (human) (UniProt Q9P286)
PHKG2 (human) = PHKG2 (human) (UniProt P15735)
PLK1 (human) = PLK1 (human) (UniProt P53350)
PLK3 (human) = PLK3 (human) (UniProt Q9H4B4)
PRKACB (human) = PRKACB (human) (UniProt P22694)
PRKG1 (human) = PRKG1 (human) (UniProt Q13976)
PRKX (human) = PRKX (human) (UniProt P51817)
PRKX (human), sequence (P51817 whole entry, looked up): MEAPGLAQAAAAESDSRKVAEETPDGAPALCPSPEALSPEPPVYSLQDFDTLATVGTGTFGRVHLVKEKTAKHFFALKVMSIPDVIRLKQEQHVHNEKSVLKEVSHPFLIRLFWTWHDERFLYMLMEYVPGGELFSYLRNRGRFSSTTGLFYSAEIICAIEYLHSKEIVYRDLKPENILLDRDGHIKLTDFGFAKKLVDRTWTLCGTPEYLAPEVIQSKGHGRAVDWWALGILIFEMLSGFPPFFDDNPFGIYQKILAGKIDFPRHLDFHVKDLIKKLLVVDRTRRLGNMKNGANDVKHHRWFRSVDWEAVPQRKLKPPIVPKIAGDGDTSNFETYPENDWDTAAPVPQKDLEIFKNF

PTK2B (human) = PTK2B (human) (UniProt Q14289)
PTK6 (human) = PTK6 (human) (UniProt Q13882)
RIPK2 (human) = RIPK2 (human) (UniProt O43353)
RPS6KA3 KD1 (human) = RPS6KA3 KD1 (human) (UniProt P51812)
STK32C (human) = STK32C (human) (UniProt Q86UX6)
STK32C (human), sequence (Q86UX6 whole entry, looked up): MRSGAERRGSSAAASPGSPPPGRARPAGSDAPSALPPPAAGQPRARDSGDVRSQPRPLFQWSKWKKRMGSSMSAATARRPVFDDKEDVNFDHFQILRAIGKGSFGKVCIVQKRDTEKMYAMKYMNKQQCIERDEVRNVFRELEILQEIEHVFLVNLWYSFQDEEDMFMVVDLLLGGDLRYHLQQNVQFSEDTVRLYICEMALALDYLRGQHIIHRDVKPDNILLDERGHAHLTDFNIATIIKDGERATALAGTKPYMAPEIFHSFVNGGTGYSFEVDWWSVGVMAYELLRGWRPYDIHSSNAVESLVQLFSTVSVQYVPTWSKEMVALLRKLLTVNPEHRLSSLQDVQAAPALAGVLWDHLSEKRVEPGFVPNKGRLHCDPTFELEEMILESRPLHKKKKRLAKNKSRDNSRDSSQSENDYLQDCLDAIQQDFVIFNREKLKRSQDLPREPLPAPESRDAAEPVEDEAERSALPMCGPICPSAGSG

TGFBR1 (human) = TGFBR1 (human) (UniProt P36897)
TLK2 (human) = TLK2 (human) (UniProt Q86UE8)

Measured: kinase still bound, per cent of control

CAMK1G (human), sequence (Q96NX5 whole entry, looked up): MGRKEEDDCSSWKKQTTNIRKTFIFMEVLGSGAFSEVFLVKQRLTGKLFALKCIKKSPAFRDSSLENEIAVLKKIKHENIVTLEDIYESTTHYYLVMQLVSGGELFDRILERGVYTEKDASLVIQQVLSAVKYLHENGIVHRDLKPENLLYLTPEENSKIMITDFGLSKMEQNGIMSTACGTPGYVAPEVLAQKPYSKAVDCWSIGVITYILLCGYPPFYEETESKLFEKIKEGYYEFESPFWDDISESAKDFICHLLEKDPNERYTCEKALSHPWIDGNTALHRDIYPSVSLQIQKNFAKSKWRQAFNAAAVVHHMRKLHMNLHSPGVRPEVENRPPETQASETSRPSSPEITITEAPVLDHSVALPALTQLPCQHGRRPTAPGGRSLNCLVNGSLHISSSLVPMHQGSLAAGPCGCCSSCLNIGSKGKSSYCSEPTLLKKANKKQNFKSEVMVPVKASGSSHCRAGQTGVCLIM
CAMKK2 (human), sequence (Q96RR4 whole entry, looked up): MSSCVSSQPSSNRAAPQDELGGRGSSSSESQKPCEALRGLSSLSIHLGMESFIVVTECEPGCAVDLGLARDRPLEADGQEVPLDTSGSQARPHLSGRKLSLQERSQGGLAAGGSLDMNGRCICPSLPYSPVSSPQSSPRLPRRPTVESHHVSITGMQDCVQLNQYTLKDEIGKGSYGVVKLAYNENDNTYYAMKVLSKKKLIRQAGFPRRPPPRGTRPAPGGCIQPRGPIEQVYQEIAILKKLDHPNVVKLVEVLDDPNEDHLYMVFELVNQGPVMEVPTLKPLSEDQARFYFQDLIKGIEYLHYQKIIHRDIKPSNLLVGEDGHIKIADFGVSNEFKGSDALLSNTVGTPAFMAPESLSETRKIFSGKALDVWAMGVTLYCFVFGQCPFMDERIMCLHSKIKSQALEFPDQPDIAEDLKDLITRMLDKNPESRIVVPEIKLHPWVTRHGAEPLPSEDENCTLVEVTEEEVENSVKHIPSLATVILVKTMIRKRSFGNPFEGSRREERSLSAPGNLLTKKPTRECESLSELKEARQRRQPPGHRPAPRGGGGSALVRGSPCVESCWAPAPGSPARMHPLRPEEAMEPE

Cc1ccc(NC(=O)c2cccc(N3CCCCC3)c2)cc1-c1ccc(C(=O)NCC2CC2)cc1
0%: MAPK14 (human)
inactive: CAMK1G (human) no effect | CAMK2D (human) no effect | CAMKK2 (human) no effect | CLK1 (human) no effect | CLK3 (human) no effect | CSK (human) no effect | EPHA4 (human) no effect | EPHB2 (human) no effect | EPHB3 (human) no effect | ERBB4 (human) no effect | FGFR1 (human) no effect | IGF1R (human) no effect | INSR (human) no effect | INSRR (human) no effect | LIMK1 (human) no effect | LTK (human) no effect | MAP3K5 (human) no effect | MAPK1 (human) no effect | MAPK3 (human) no effect | MARK1 (human) no effect | MUSK (human) no effect | NEK2 (human) no effect | NEK6 (human) no effect | NTRK1 (human) no effect | PAK3 (human) no effect | PAK6 (human) no effect | PAK7 (human) no effect | PHKG2 (human) no effect | PLK1 (human) no effect | PLK3 (human) no effect | PRKACB (human) no effect | PRKG1 (human) no effect | PRKX (human) no effect | PTK2B (human) no effect | PTK6 (human) no effect | RIPK2 (human) no effect | RPS6KA3 KD1 (human) no effect | STK32C (human) no effect | TGFBR1 (human) no effect | TLK2 (human) no effect

CCS(=O)(=O)Nc1ccc2c(c1)[C@H](/C(=N/c1ccc(CN3CCCCC3)cc1)c1ccccc1)C(=O)N2
7.2%: EPHB3 (human)
2%: CAMK2D (human)
34.7%: ERBB4 (human)
24.8%: PRKX (human)
2.6%: PAK6 (human)
10.8%: MAPK3 (human)
14%: MAPK1 (human)
2.3%: CLK3 (human)
1.4%: MAP3K5 (human)
inactive: CAMK1G (human) no effect | LIMK1 (human) no effect | MAPK14 (human) no effect | NEK6 (human) no effect | PLK3 (human) no effect | STK32C (human) no effect
3.6%: EPHA4 (human)
1.8%: PTK6 (human)
1.5%: TLK2 (human)
6.9%: RIPK2 (human)
0.1%: CAMKK2 (human)
7%: PRKACB (human)
0.15%: EPHB2 (human) | PRKG1 (human)
1.55%: PLK1 (human)
0%: CLK1 (human) | CSK (human) | FGFR1 (human) | IGF1R (human) | INSR (human) | INSRR (human) | LTK (human) | MARK1 (human) | MUSK (human) | NEK2 (human) | NTRK1 (human) | PAK3 (human) | PAK7 (human) | PHKG2 (human) | PTK2B (human) | RPS6KA3 KD1 (human) | TGFBR1 (human)

From the kinase profiling compilation of Christmann-Franck et al. (2016)
